Measured values from patent US20100074881A1, “MULTIPLE NEBULIZER SYSTEMS” (PARION SCIENCES, Inc., priority 2008, published 2010).

Experiments:
airways = details: concurrent use of hypertonic saline and amiloride; cited from earlier work
airway surface = test: Airway surface hydration with PS552-02 and hypertonic saline; details: PS552-02 together with hypertonic saline (3-7%)
From the text: (§1) A specific example of an application for the dual-nebulizer technology is illustrated in the following example in which the desired co-delivery of two therapeutic agents that act synergistically is not possible due to the incompatibility of these agents in a single formulation. […] However, due to the poor solubility of PS552-02 in NaCl solutions, these two agents cannot be formulated together. Currently, administration of PS552-02 and hypertonic saline would require two independent nebulizer treatments. However, a dual nebulizer system alleviates this issue by allowing both agents to be simultaneously delivered. Compound PS552-02 is represented by the formula: […]

[1] = Solubility of PS552-02 in NaCl solutions; assay type: physicochemical
From the text: as §1

| solubility in NaCl solutions [1] | Structure (SMILES) | effect on water permeability of airways (airways) | airway surface hydration (airway surface) |
| --- | --- | --- | --- |
|  | N=C(N)NC(=O)c1nc(Cl)c(N)nc1N [Amiloride, amiloride] | block the water permeability of airways |  |
| poor | N=C(NCCCCc1ccc(OCC(O)CO)cc1)NC(=O)c1nc(Cl)c(N)nc1N (stereo not drawn) [PS552-02] |  | synergistically enhance |
